Source: patent US8680042B2, “Methods of treating sickle cell anemia-related conditions with MK-801 or memantine” (Universität Zürich Prorektorat MNW, priority 2009, dated 2014)

Biological target: T1, NMDA receptor in erythrocytes (Homo sapiens, UniProt Q05586)
T1 construct: Potassium and calcium fluxes through the NMDA receptor in erythrocytes of healthy donors (C) and patients with sickle cell anemia; endogenous in cells; host or cells: freshly isolated human erythrocytes (HbSS patients and healthy donors)
Experiment: Unidirectional K+ (86Rb) and Ca2+ (45Ca) fluxes via the cation channel of the NMDA receptor, radioactive tracer kinetics
Type: cell-based
Conditions: for NMDA- and PGE2-sensitive increase in fluxes: stimulated by NMDA (100 μM) or prostaglandine E2 (2 μM), blocker added
Protocol: FIGS. 2A and 2B: Potassium and calcium fluxes through the NMDA receptor in erythrocytes of healthy donors (C) and patients with sickle cell anemia (H). 2A: Unidirectional K^+ influx measured in chloride-free Na-methane sulfate medium in the presence of 100 μM ouabain, the inhibitor of […]. Conditions corresponding to the numbers at the X axis: (1) control; (2) 50 μM memantine chloride (Sigma-Aldhdge); (3) 100 μM NMDA; (4) NMDA+memantine chloride; (5) 2 μM prostaglandine E2 (PGE2); (6) PGE2+memantine chloride. * denotes p<0.05 compared to the corresponding values in healthy donor's erythrocytes, # stands for p<0.05 compared to the corresponding non-treated control. Data are means±SEM for 6-7 individuals. 2B: Unidirectional Ca^2+ influx in erythrocytes of a single HbSS patient measured on 3 different occasions and in three healthy donors. Conditions indicated in numbers at the X axis are: (1) non-treated control; (2) 100 μM NMDA; (3) 100 μM NMDA and 50 μM MK-801. * denotes p<0.05 compared to the corresponding healthy donors' samples.
The following experiments were conducted using fresh-isolated human erythrocytes of HbSS patients and healthy subjects.
Fluxes via the nonselective cation channel of the NMDA receptor were assessed using radioactive tracer kinetics. 86Rb was used as a radioactive tracer for K^+ and 45Ca as a tracer for Ca^2+. Fluxes through the red cell membrane were measures in the medium containing (mM) 145 Na-methane sulfate, 4 K-gluconate, 1 Ca-gluconate, 10 sucrose, 10 glucose and 10 HEPES-Tris (pH 7.4) in the presence of 100 μM L-arginine and 100 μM ouabain. Details of the flux measurement may be found elsewhere (e.g. Bogdanova et al., J Membr Biol. 2003; 195(1):33-42).

SMILES	NMDA- and PGE2-sensitive increase in fluxes	other results
CCCCC[C@H](O)/C=C/[C@H]1[C@H](O)CC(=O)[C@@H]1C/C=C\CCCC(=O)O [prostaglandine E2]		Fluxes of both cations (K+ and Ca2+) (agonist 2 μM): further stimulated
CN[C@H](CC(=O)O)C(=O)O [NMDA, N-methyl D-aspartate]		Fluxes of both cations (K+ and Ca2+) (agonist 100 μM): further stimulated
C[C@]12N[C@H](Cc3ccccc31)c1ccccc12 [MK-801, Dizocilpine]	could be blocked	
CC12CC3CC(C)(C1)CC(N)(C3)C2 [memantine, Memantine]	could be blocked	
